Values joined by “and” are separate entries in the source; they are usually repeats but may differ in a detail not shown here. Equal values may be shown once.
Experiments:
[1] = system: precursors for spermatogenic tissue; assay: Growth of colonies from CFU-Sp with in vitro addition of Treamid; format: cell-based, rat; settings: Cells of the testes of intact rats
Description: The precursor cells of the studied organ were cultured by using an underlayer (represented by the cells of the adherent fraction) prepared in advance in a 96-well plate, as described above.
Further, a nonadherent cell fraction of spermatogenic tissue was isolated from the two groups of animals (intact animals and animals received Paclitaxel intravenously 24 hours prior to the study) and was transferred to the resulting underlayer in complete culture medium (80% DMEM, 20% FCS, L-glutamine, antibiotics, heparin) at a concentration of 2×10^5/ml. Prior to the incubation in the complete culture medium, Treamid was added at a concentrations of 1 ng/ml, 3 ng/ml, 10 ng/ml, 30 ng/ml, 100 ng/ml, 300 ng/ml and 1000 ng/ml. The incubation lasted for 7 days in a CO2 incubator at 37° C., 5% CO2 and 100% air humidity. After the incubation, the number of colony-forming units, spermatogenic (CFU-Sp)—clusters of more than 30 cells of round shape and of various diameters—was counted.
The effectiveness of Treamid was estimated by a significant increase in the number of cells giving rise to CFU-Sp in the culture with the addition of the test compound, compared to that in the control.
The direct action of Treamid on the precursors for spermatogenic tissue was studied in vitro by addition of Treamid to the cell culture at concentrations of 1, 30, 100, and 1000 ng/ml.

male C57BL/6 mice = assay: Bleomycin-induced pulmonary fibrosis model; format: in vivo, mouse; settings: Day 21; 10 mg/kg
Description: Toxic damage of the lung alveolar epithelium causing pulmonary fibrosis was simulated by intra-tracheal administration of the cytostatic bleomycin once in a dose of 80 μg/mouse in 30 μl of physiological saline. Anesthesia during the operation was achieved by using inhalation ether. The surgical field was disinfected with a 70% ethanol solution and hair on this field was removed. The skin, subcutaneous tissue and own fascia of the neck were dissected along the middle line of the neck. The muscles were moved apart on the ventral side of the trachea by the method of blunt separation of tissues. Injection of bleomycin was made on inhalation along the airflow by a Hamilton syringe. After suturing the wound, the surgical field was treated with an antiseptic. The administration of bleomycin was taken as Day 0 of the experiment.
The effectiveness of Treamid and the reproduction of pulmonary fibrosis were estimated by the number and intensity of the synthesis of connective tissue in the lungs, as well as by the histoarchitectonics of the lungs.
Thus, the staining of histological preparations of the lungs of C57BL/6 mice with picrofuxin according to Van Gieson and subsequent visualization of the connective tissue made it possible to register a significant proliferation of the connective tissue, mainly around the vessels and bronchioles (FIG. 5, Table 36). In addition, lung homogenates of the animals of the intact control and pathological control were investigated by enzyme immunoassay.

female C57Bl/6 mice = assay: Elastase-induced pulmonary emphysema model; format: in vivo, mouse
Description: Pulmonary emphysema was induced in female C57Bl/6 mice by a single intratracheal administration of elastase (Sigma, USA) at a dose of 0.6 U/mouse in 30 μl of 0.9% NaCl [Lüthje L., Raupach T., Michels H. et al.//Respiratory Research 2009, 10: 7]. The day of operation was taken as Day 0 of the experiment. Treamid was administered at a dose of 10 mg/kg intragastrically once daily, every day from Day 7 to Day 60 of the study. On Days 7, 14, 30 and 60, the animals were euthanized in a CO2 chamber, and their lungs were isolated.
The dynamics and severity of the developed emphysema in the lung tissue were assessed on histological preparations. For this, the lungs were fixed in a 10% neutral formalin solution and then poured into paraffin by the standard method. The preparations of the lung apex, middle lung field, and lower lung field of a thickness of 5 μm were prepared from the deparaffined sections, and stained with hematoxylin and eosin by the standard procedure. Further, photographs of the lung apex, middle lung field, and lower lung field were made, and the localization and area of emphysema were studied by using graphics processing software. The area of emphysematously enlarged lung tissue (% of normal tissue) was measured as an estimated score of the development of emphysema, and blood vessels and bronchi were excluded from the calculations [ArrateMunoz-Barrutia, Mario Ceresa, Xabier Artaechevarria, Luis M. Montuenga, and Carlos Ortiz-de-Solorzano. Quantification of Lung Damage in an Elastase-Induced Mouse Model of Emphysema//International Journal of Biomedical Imaging. Volume 2012, Article ID 734734, 11 pages; Susumu Sato, Erzsebet Bartoldk-Suki, Harikrishnan Parameswaran, Hiroshi Hamakawal and Bela Suki. Scale dependence of structure-function relationship in the emphysematous mouse lung//Front. Physiol. 6:146. doi: 10.3389/fphys. 2015.00146].

male Wistar rats = assay: Sexual incentive motivation test, rats of late reproductive age; format: in vivo, rat
Description: Erectile dysfunction was simulated by using animals of late and senile reproductive age (14-19 months). Suppression of sexual motivation was simulated by using animals of late reproductive age (14 months).
Experiments on studying the effect of Treamid on sexual motivation were carried out on 40 male Wistar rats (14 months of age). A model for a targeted search for novel agents for the therapy of this pathology was used as an experimental model of sexual incentive motivation in rats [Xi Chu, Ekaterina S. Zhavbert, Julia L. Dugina, Irina A. Kheyfets, Svetlana A. Sergeeva, Oleg I. Epstein, Anders Agmo Sindenafil and a compound stimulating endothelial NO synthase modity sexual incentive motivation and copulatory behavior in male wistar and fisher 344//J Sex Med.—2008.—5.—P. 2085-2009]. This model is based on the fact that rats are social animals and seek not only sexual, but also social contacts. The assessment of sexual motivation involves determining the time spent near a sexual stimulus and the score of preference in animals without direct contact with “social” and “sexual” stimuli. The sexual stimulus was a female rat in estrus stage, and the social stimulus was a male rat.

[2] = Day 7, Treamid 10 mg/kg intragastrically from Day 7
[3] = 14-month rats, Second test, after administration of the test compound, Treamid 5 mg/kg, Sildenafil 3 mg/kg, 14 days
[4] = 14-month rats, first test, before administration

O=C(CCCC(=O)NCCc1ncc[nH]1)NCCc1ncc[nH]1 [Treamid]
CFU-Sp per 4 × 10^4 nuclears ([1]; Treamid 1 ng/ml): 6.83 ± 0.48 per 4 × 10^4 nuclears
CFU-Sp per 4 × 10^4 nuclears ([1]; Treamid 30 ng/ml): 6.0 ± 0.36 per 4 × 10^4 nuclears
CFU-Sp per 4 × 10^4 nuclears ([1]; Treamid 100 ng/ml): 8.50 ± 0.42 per 4 × 10^4 nuclears
CFU-Sp per 4 × 10^4 nuclears ([1]; Treamid 1000 ng/ml): 11.67 ± 1.81 per 4 × 10^4 nuclears
Hydroxyproline (μg/ml) in the lungs (male C57BL/6 mice): 27.97 ± 2.2 µg/mL
The content of connective tissue (%) in the lungs (male C57BL/6 mice): 1.17 ± 0.20• %
Total collagen (mg/ml) in the lungs (male C57BL/6 mice): 23.4 ± 1.7 mg/mL
Type I collagen (ng/ml) in the lungs (male C57BL/6 mice): 201.6 ± 18 ng/mL
The area of emphysematously enlarged lung tissue (% of normal), Lower lung field (female C57Bl/6 mice; [2]): 41.3 ± 1.82 % of normal
The area of emphysematously enlarged lung tissue (% of normal), Lung apex (female C57Bl/6 mice; [2]): 0.9 ± 0.12*• % of normal
The area of emphysematously enlarged lung tissue (% of normal), Middle lung field (female C57Bl/6 mice; [2]): 5.4 ± 0.55 % of normal
The area of emphysematously enlarged lung tissue (% of normal), Lower lung field (female C57Bl/6 mice; Day 14, Treamid 10 mg/kg): 42.6 ± 1.79*• % of normal
The area of emphysematously enlarged lung tissue (% of normal), Lung apex (female C57Bl/6 mice; Day 14, Treamid 10 mg/kg): 0.7 ± 0.09*• % of normal
The area of emphysematously enlarged lung tissue (% of normal), Middle lung field (female C57Bl/6 mice; Day 14, Treamid 10 mg/kg): 29.03 ± 1.76 % of normal
The area of emphysematously enlarged lung tissue (% of normal), Lower lung field (female C57Bl/6 mice; Day 30, Treamid 10 mg/kg): 32.8 ± 3.78*• % of normal
The area of emphysematously enlarged lung tissue (% of normal), Lung apex (female C57Bl/6 mice; Day 30, Treamid 10 mg/kg): 2.4 ± 1.6*• % of normal
The area of emphysematously enlarged lung tissue (% of normal), Middle lung field (female C57Bl/6 mice; Day 30, Treamid 10 mg/kg): 18.5 ± 2.91 % of normal
The area of emphysematously enlarged lung tissue (% of normal), Lower lung field (female C57Bl/6 mice; Day 60, Treamid 10 mg/kg): 40.0 ± 3.57*• % of normal
The area of emphysematously enlarged lung tissue (% of normal), Lung apex (female C57Bl/6 mice; Day 60, Treamid 10 mg/kg): 3.6 ± 0.26*• % of normal
The area of emphysematously enlarged lung tissue (% of normal), Middle lung field (female C57Bl/6 mice; Day 60, Treamid 10 mg/kg): 24.9 ± 3.11 % of normal
A, sec (time spent in the sexual stimulus zone) (male Wistar rats; [3]): 154.00 ± 41.83#⋄ sec
B, sex (time spent in the social stimulus zone) (male Wistar rats; [3]): 95.60 ± 29.66 s
PS, s. u. (preference score) (male Wistar rats; [3]): 0.64±0.09 s. u. and 0.64 ± 0.09⋄ s. u.
effect on sexual motivation (male Wistar rats; 14-month rats, Treamid 5 mg/kg, Sildenafil 3 mg/kg): has a stimulating effect
A, sec (time spent in the sexual stimulus zone) (male Wistar rats; [4]): 132.30 ± 23.69 s
B, sec (time spent in the social stimulus zone) (male Wistar rats; [4]): 113.60 ± 13.77 s
PS, s. u. (preference score) (male Wistar rats; [4]): 0.51 ± 0.06 s. u.
decrease of time spent in the social stimulus zone compared with the control (male Wistar rats; Treamid 5 mg/kg, second test): 2 times

From patent US10076511B2, “Bisamide derivative of dicarboxylic acid as an agent for stimulating tissue regeneration and recovery of diminished tissue function” (TREAMID GmbH, priority 2015, dated 2018)
